Key:
[1] = test system: NMDA (NR1/NR2A/NR2B/NR2C/NR2D); experiment: NMDA receptor channel Fluo-8 calcium FLIPR assay; type: cell-based, human; settings: HEK293, Fluo-8 calcium FLIPR, agonist and antagonist assessment
Method: Studies for NMDA receptors, NR1, NR2A, NR2B, NR2C, NR2D receptor, were conducted to monitor receptor activity for 8′OH-2CF3-dihydroergotamine (8′OH-2CF3-DHE) using the Fluo-8 calcium kit and a Fluorescence Imaging Plate Reader (FLIPR^TETRA™) instrument. The following channels were evaluated: Cloned NMDA receptor (NR1/NR2A) channel (encoded by the GRIN1 and GRIN2A genes, coexpressed in HEK293 cells; Cloned NMDA receptor (NR1/NR2B) channel (encoded by the GRIN1 and GRIN2B genes, coexpressed in HEK293 cells; Cloned NMDA receptor (NR1/NR2C) channel (encoded by the GRIN1 and GRIN2C genes, coexpressed in HEK293 cells; and Cloned NMDA receptor (NR1/NR2D) channel (encoded by the GRIN1 and GRIN2D genes, transiently coexpressed in HEK293 cells.
For the agonist assessment, the effect of 8′OH-2CF3-DHE was evaluated in the absence of the positive control agonist. The signal, elicited in the presence of the agonist (100 μM Glutamic acid+20 μM Glycine), was set to 100% activation and the signal in the presence of the vehicle control (Mg^2+-free HB-PS) was set to 0% activation.
For the antagonist assessment, NR1/NR2A and NR1/NR2B was activated with the positive control agonist (100 μM Glutamic acid+20 μM Glycine). The ability of 8′OH-2CF3-DHE to inhibit the signal was examined after agonist stimulation and compared to the positive control antagonist (MK-801). […]

Dopamine D2L = target: T1, Dopamine D2L (Homo sapiens, UniProt P14416); experiment: GTPγ[35S] assay, Dopamine D2L; type: biochemical; settings: agonism, CHO-K1 membranes
T1 construct: expressed in transfected cells; host or cells: CHO-K1 (membrane extracts)
Method: (§1) Receptor […] activity assays were performed using 8′OH-2-CF3-dihydroergotamine (8′OH-2-CF3-DHE). Table 1 summarizes the cell lines (CHO-K1/HEK293 transfected with relevant human receptor) and the assays performed to detect any agonist or antagonist activity.
(§2) GTPγS studies were conducted to monitor agonist activity for 8′OH-2CF3-dihydroergotamine (8′OH-2CF3-DHE) against the receptors indicated in Table 1 above. Reagents used were the following: Assay buffer (20 mM HEPES, pH 7.4; 100 mM NaCl; 10 μg/mL saponin; 30 mM MgCl2); Membranes (recombinant human receptor membrane extracts were thawed on ice and diluted in assay buffer to give 1000 μg/mL ([…]) and kept on ice); GDP (diluted in assay buffer to give 30 μM solution (3 μM final concentration); beads (PVT-WGA (Amersham, RPNQ001), diluted in assay buffer at 25 mg/mL (0.25 mg/10 μL)); GTPγ^35S (Perkin Elmer, NEG030X), diluted in assay buffer to give 0.1 nM (final concentration); and ligand (agonist/antagonist diluted in assay buffer).
(§3) Membranes were mixed with GDP (1:1) and incubated for at least 15 minutes on ice. In parallel GTPγ^35S was mixed with the beads (1:1) just before starting the reaction. […] The plates were then centrifuged for 10 minutes at 2000 rpm and incubated at room temperature for 1 hour and counted for 1 min/well with a Perkin Elmer TopCount reader.

Adrenergic α1A = target: T2, Adrenergic α1A (Homo sapiens, UniProt P35348); experiment: Aequorin assay, Adrenergic α1A; type: cell-based; settings: antagonism, CHO-K1 mAeq, read-out: Activity (Antagonism: IC50), Adrenergic a1A
T2 construct: expressed in transfected cells; host or cells: CHO-K1 mAeq
Method: as §1
Aequorin assays were conducted to monitor activity for 8′OH-2CF3-dihydroergotamine (8′OH-2CF3-DHE) against the receptors indicated in Table 1 above (except for mGlu3 and mGlu5). CHO-K1 cells coexpressing mitochondrial apoaequorin and the recombinant human receptor of interest were grown to mid-log phase in culture media without antibiotics and then detached with PBS-EDTA, centrifuged and resuspended in assay buffer (DMEM/HAM's F12 with HEPES, without phenol red+0.1% BSA, protease free) at a concentration of 1×10^6 cell/mL. […]
50 μL of the cell suspension was mixed with 50 μL of test or reference agonist in a 96-well plate. The resulting emission of light was recorded using Hamamatsu Functional Drug Screening System 6000 (FDSS 6000) luminometer. […]
To standardize the emission of recorded light (and determine of the “100% signal”) across plates and across different experiments, some wells contained 100 μM digitonin or a saturating concentration of ATP (20 μM).

Dopamine D3 = target: T3, Dopamine D3 (Homo sapiens, UniProt P35462); experiment: GTPγ[35S] assay, Dopamine D3; type: biochemical; settings: agonism, CHO-K1 membranes
T3 construct: expressed in transfected cells; host or cells: CHO-K1 (membrane extracts)
Method: as §1, §2, §3

T3 sequence (P35462 whole entry): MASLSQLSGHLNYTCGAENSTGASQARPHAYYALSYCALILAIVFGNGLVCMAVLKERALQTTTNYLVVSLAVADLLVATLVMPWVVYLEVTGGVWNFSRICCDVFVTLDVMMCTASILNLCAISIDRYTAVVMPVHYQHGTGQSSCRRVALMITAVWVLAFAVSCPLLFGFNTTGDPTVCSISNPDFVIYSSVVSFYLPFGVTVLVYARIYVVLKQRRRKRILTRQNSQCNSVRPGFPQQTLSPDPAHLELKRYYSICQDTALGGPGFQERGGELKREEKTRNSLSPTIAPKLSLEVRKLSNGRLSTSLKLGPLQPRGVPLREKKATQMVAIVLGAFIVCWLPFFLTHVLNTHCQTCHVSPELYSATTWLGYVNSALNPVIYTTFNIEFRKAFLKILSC
T1 sequence (P14416 whole entry): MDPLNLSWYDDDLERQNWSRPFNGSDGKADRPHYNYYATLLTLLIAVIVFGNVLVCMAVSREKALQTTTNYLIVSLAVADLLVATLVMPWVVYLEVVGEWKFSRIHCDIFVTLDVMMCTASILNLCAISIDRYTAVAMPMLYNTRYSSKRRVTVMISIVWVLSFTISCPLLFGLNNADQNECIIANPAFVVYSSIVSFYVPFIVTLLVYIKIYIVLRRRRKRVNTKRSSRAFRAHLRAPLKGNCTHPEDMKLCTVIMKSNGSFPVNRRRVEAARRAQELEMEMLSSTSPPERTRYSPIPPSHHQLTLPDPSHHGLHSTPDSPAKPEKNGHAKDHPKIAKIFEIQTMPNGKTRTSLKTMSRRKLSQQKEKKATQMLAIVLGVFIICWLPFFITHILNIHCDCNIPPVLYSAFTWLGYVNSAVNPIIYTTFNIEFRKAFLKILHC
T2 sequence (P35348 whole entry): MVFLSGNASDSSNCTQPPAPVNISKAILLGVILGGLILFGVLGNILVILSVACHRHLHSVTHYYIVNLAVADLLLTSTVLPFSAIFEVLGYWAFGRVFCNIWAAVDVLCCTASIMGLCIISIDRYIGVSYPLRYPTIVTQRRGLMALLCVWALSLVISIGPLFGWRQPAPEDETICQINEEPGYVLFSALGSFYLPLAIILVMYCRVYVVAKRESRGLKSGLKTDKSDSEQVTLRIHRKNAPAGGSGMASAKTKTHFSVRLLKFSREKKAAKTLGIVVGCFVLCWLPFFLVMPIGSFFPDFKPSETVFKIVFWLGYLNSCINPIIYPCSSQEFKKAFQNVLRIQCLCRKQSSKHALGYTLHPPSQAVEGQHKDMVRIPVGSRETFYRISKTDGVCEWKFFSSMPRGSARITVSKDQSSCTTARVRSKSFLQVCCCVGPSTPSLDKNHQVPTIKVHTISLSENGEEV

CN1C[C@H](C(=O)N[C@]2(C)O[C@@]3(O)[C@@H]4CC[C@@H](O)N4C(=O)[C@H](Cc4ccccc4)N3C2=O)C[C@@H]2c3cccc4[nH]c(C(F)(F)F)c(c34)C[C@H]21 [8′OH-2-CF3-DHE, 8′-Hydroxy-2-CF3-dihydroergotamine]
Activity (Agonism: EC50; Antagonism: IC50), NMDA (NR1/NR2A/NR2B/NR2C/NR2D) [1]: Inactive | EC50 (Dopamine D2L): 17.3 nM | IC50 (Adrenergic α1A): 39.5 nM | EC50 (Dopamine D3): 32.3 nM

Reference: US20150238487A1, “NOVEL ERGOLINE DERIVATIVES AND USES THEREOF” (MAP Pharmaceuticals, Inc., priority 2012, published 2015)
